The values below come from patent publication US20160044917A1, “LOW ENVIRONMENTAL IMPACT PESTICIDE MADE FROM "GRAS" INGREDIENTS FOR USE AGAINST COQUI FROGS AND OTHER SPECIES” (priority 2015, published 2016).

SMILES strings stand for the structures. Like-named read-outs stand apart in the source and are kept apart here.

One data set deals with frogs. As to the kind of experiment: Frog killing time with different concentrations. It is filed as in vivo. The settings on record: concentrations from about 5% to about 10%. How it is done:
Additionally, this formulation killed 10 out of 10 frogs within about 15 minutes. More over, concentrations using proprionic acid ranging from about 5% to about 10% were lethal to the frogs in the test group.

The test system of the next data set is human skin. As to the kind of experiment: Contact of acid solution with human skin or hand. It is filed as in vivo. The settings on record: solution with a pH of less than 0.5. How it is done: As discussed above, AGIIS has relatively less dehydrating properties (such as charring sucrose) as compared to the saturated solution of CaSO4 in the same concentration of H2SO4. […] AGIIS has low volatility at room temperature and pressure.
In view of the need to find new phytogenic friendly alternatives for controlling the spread of Coqui frogs, a commercially available food sanitation product (i.e. Acidic Calcium Sulfate (“ACS”) was evaluated for inclusion in the current inventory of chemicals that can be applied as sprays. ACS and functional equivalents thereof are made from ingredients that are generally regarded as safe (“GRAS”), and is approved for use in food by the FDA and USDA. Although not wanting to be bound by theory, the efficacy of this product stems from its very unique characteristic of being able to donate a very high activity of hydrogen ions (low pH), while at the same time, having very low oxidative effects on plants and human skin. For example, a five (5) normal concentration of ACS having a pH of approximately zero may be held in the human hand without harm to the person holding the acid. In contrast, when very small amounts are applied to the skin of Coqui frogs it is quickly absorbed and respiration is immediately impaired with lethal results. […]

A further data set concerns common plants. As to conditions: citric acid 25%, three days after treatment, cited from earlier work.

On to `CCC(=O)O` [propionic acid], for which the “lethality to the frogs in the test group” value in the data set on frogs is on record as “lethal”.

For the molecule `O=S(=O)(O)O` [sulfuric acid], the “effect on hand put into the solution” value with human skin is recorded as “an irritation would occur”.

Consider `O=C(O)CC(O)(CC(=O)O)C(=O)O` [citric acid], for which the phytotoxicity rating result with common plants (bromeliad) is reported as “moderate”; in the data set on common plants (calathea), “severe”; in the data set on common plants (dendrobium orchid), “moderate”; in the data set with common plants (eggplants) it was “severe”; in the data set with common plants (guava plant), “moderate”; in the data set on common plants (leatherleaf fern) it was “moderate”. Moreover, the phytotoxicity rating entry is “slight” with common plants (passion fruit), “slight” with common plants (payaya) and “severe” in the data set on common plants (streptocarpus).
